Tested on: 233499-124-R-J3-PDC complex spheroid growth
Assay: Anticancer human tumor 233499-124-R-J3-PDC patient-derived colon adenocarcinoma cell line growth inhibition [AhR]
Settings: for IC50: curve of first compound; for viability, T/C: stronger effect = lower value
Excerpt: Multicellular complex tumor spheroid response to aryl hydrocarbon receptor antagonists in combination with a variety of drugs and investigational agents in selected tumor cell lines
The current study was undertaken to assess response to aryl hydrocarbon receptor antagonists in combination with standard-of-care drugs and investigational agents in solid tumor complex spheroid models. Complex spheroids include a stromal component modeled by human endothelial cells (HUVEC) and fibroblasts modeled by human mesenchymal stem cells (MSCs). The concentration ranges selected for each drug and investigational agent were based upon clinically achievable concentrations if the clinical Cmax of the agent was known.
Compounds. The drugs and investigational agents: BAY 2416964 (NSC825713), GNF351 (NSC835774), CH-223191 (NSC835775), CPI-455 (NSC825282), aza-TdCyd (NSC777586), decitabine (NSC127716), belinostat (NSC758774), entinostat (NSC756642), pevonedistat (NSC761192), tazemetostat (NSC777109), talazoparib (NSC765396), olaparib (NSC753686), selinexor (NSC780203), nedisertib (M3814, NSC802822), bortezomib (NSC756655), venetoclax (NSC766270), doxorubicin (NSC123127), elimusertib (BAY189344, NSC800525), ceralasertib (AZD6738, NSC777638), TAK-243 (NSC785004), alisertib (NSC759677), etoposide (NSC141540), topotecan (NSC609699), eribulin (NSC707389), gemcitabine (NSC613327), carboplatin (NSC241240), cisplatin (NSC119875), and SN-38 (NSC673596) were obtained from the National Cancer Institute (NCI) Developmental Therapeutics Program Chemical Repository (32). The FDA-approved anticancer drug set is available from the Developmental Therapeutics Program at https://dtp.cancer.gov/organization/dscb/obtaining/available plates.htm. […] The stock solutions were prepared in dimethyl sulfoxide (DMSO, Sigma-Aldrich, St. Louis, MO, cat. D2650), except for the platinum compounds which were prepared in saline (Quality Biological, Gaithersburg, MD, cat. 114-055-101), at 800-fold the tested concentration and stored at -70 degrees C prior to their use. All drugs and investigational agents were tested over a range starting from a high concentration at or near the clinical Cmax and decreasing in half-log increments. If the clinical Cmax for an agent had not been determined, the highest concentration tested was 10 microM (Table 1).
Cell Culture. All cells were maintained in an incubator at 37 degrees C and 5% CO2 with 95% humidity. The PDC lines were cultured according to standard operating procedures established by the NCI PDMR (https://pdmr.cancer.gov). Briefly, all PDCs were thawed and cultured in Matrigel-coated flasks prepared with a working solution of 1X Ham's F-12 nutrient mix, without supplementation (Invitrogen, Waltham, MA, cat. 11765054), 100 U/mL penicillin-streptomycin (Invitrogen, cat. 15140122), and 2.5% Matrigel (Corning Inc., Corning, NY, cat. 354248) for the first three passages. All PDCs were cultured in complete DMEM/F-12 media containing advanced DMEM/F-12 (Invitrogen, cat. 12634028), 4.9% defined fetal bovine serum, heat inactivated (HyClone Laboratories Inc., Logan, UT, cat. SH30070.03HI), 389 ng/mL hydrocortisone (Sigma-Aldrich, cat. H4001), 9.7 ng/mL human EGF recombinant protein (Invitrogen, cat. PHG0313), 23.4 microg/mL adenine (Sigma-Aldrich, cat. A2786), 97.3 U/mL penicillin-streptomycin (Invitrogen, cat. 15140122), 1.9 mM L-glutamine (Invitrogen, cat. 25030081), and 9.7 microM Y-27632 dihydrochloride (Tocris Bioscience, Bristol, United Kingdom, cat. 1254). The PDCs were cultured in complete DMEM/F12 media without 10 microM Y-27632 dihydrochloride for at least two passages prior to the screen. The established cell lines NCI-H1341 and […] were cultured in DMEM/F-12, HEPES (Invitrogen, cat. 11330032), 5% defined fetal bovine serum (HyClone Laboratories Inc., cat. SH30070.03), ITS premix universal culture supplement [insulin (5 microg/mL), transferrin (5 microg/mL), and selenious acid (5 ng/mL)] […]

[1] = second compound 0.1 µM, first compound 0.00316 µM
[2] = second compound 0.1 µM, first compound 0.01 µM
[3] = second compound 0.1 µM, first compound 0.0316 µM
[4] = second compound 0.1 µM, first compound 0.1 µM
[5] = second compound 0.316 µM, first compound 0.00316 µM
[6] = second compound 0.316 µM, first compound 0.01 µM
[7] = second compound 0.316 µM, first compound 0.0316 µM
[8] = second compound 0.316 µM, first compound 0.1 µM
[9] = second compound 1 µM, first compound 0.00316 µM
[10] = second compound 1 µM, first compound 0.01 µM
[11] = second compound 1 µM, first compound 0.0316 µM
[12] = second compound 1 µM, first compound 0.1 µM
[13] = second compound 3.16 µM, first compound 0.00316 µM
[14] = second compound 3.16 µM, first compound 0.01 µM
[15] = second compound 3.16 µM, first compound 0.0316 µM
[16] = second compound 3.16 µM, first compound 0.1 µM
[17] = second compound 10 µM, first compound 0.00316 µM
[18] = second compound 10 µM, first compound 0.01 µM
[19] = second compound 10 µM, first compound 0.0316 µM
[20] = second compound 10 µM, first compound 0.1 µM
[21] = second compound 0.1 µM, first compound 0.316 µM
[22] = second compound 0.1 µM, first compound 1 µM
[23] = second compound 0.1 µM, first compound 3.16 µM
[24] = second compound 0.1 µM, first compound 10 µM
[25] = second compound 0.316 µM, first compound 0.316 µM
[26] = second compound 0.316 µM, first compound 1 µM
[27] = second compound 0.316 µM, first compound 3.16 µM
[28] = second compound 0.316 µM, first compound 10 µM
[29] = second compound 1 µM, first compound 0.316 µM
[30] = second compound 1 µM, first compound 1 µM
[31] = second compound 1 µM, first compound 3.16 µM
[32] = second compound 1 µM, first compound 10 µM
[33] = second compound 3.16 µM, first compound 0.316 µM
[34] = second compound 3.16 µM, first compound 1 µM
[35] = second compound 3.16 µM, first compound 3.16 µM
[36] = second compound 3.16 µM, first compound 10 µM
[37] = second compound 10 µM, first compound 0.316 µM
[38] = second compound 10 µM, first compound 1 µM
[39] = second compound 10 µM, first compound 3.16 µM
[40] = second compound 10 µM, first compound 10 µM
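Note: spheroids exposed to agents for seven days before reading.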

SMILES	IC50 (second compound 0.1 µM) [µM]	IC50 (second compound 0.316 µM) [µM]	IC50 (second compound 1 µM) [µM]	IC50 (second compound 3.16 µM) [µM]	IC50 (second compound 10 µM) [µM]	viability, T/C [3] [%]	viability, T/C [4] [%]	viability, T/C [7] [%]	viability, T/C [8] [%]	viability, T/C [11] [%]	viability, T/C [12] [%]	viability, T/C [15] [%]	viability, T/C [16] [%]	viability, T/C [19] [%]	viability, T/C [20] [%]	viability, T/C [21] [%]	viability, T/C [22] [%]	viability, T/C [25] [%]	viability, T/C [26] [%]	viability, T/C [29] [%]	also measured
CC[C@@]1(O)C(=O)OCc2c1cc1n(c2=O)Cc2cc3c(CN(C)C)c(O)ccc3nc2-1 + CC(CO)NC(=O)c1cc(-c2ccc(Cl)cc2)nn(-c2cnn(C)c2)c1=O	> 0.1	> 0.1	> 0.1	> 0.1	> 0.1	84.1	57.7	89.6	68.9	81.9	65.3	88	75	54.9	56.1						viability, T/C (second compound 0.1 µM, first compound 0.000316 µM): 99.5%; viability, T/C (second compound 0.1 µM, first compound 0.001 µM): 92.5%; viability, T/C [1]: 95.3%; viability, T/C [2]: 87.2%; viability, T/C (second compound 0.316 µM, first compound 0.000316 µM): 87.4%; viability, T/C (second compound 0.316 µM, first compound 0.001 µM): 94.6%; viability, T/C [5]: 89%; viability, T/C [6]: 99.5%; viability, T/C (second compound 1 µM, first compound 0.000316 µM): 93%; viability, T/C (second compound 1 µM, first compound 0.001 µM): 90%; viability, T/C [9]: 89.3%; viability, T/C [10]: 88.8%; viability, T/C (second compound 3.16 µM, first compound 0.000316 µM): 81.3%; viability, T/C (second compound 3.16 µM, first compound 0.001 µM): 82.3%; viability, T/C [13]: 84.6%; viability, T/C [14]: 99.6%; viability, T/C (second compound 10 µM, first compound 0.000316 µM): 81.5%; viability, T/C (second compound 10 µM, first compound 0.001 µM): 80.1%; viability, T/C [17]: 81.9%; viability, T/C [18]: 68.6%
COc1cc(C2c3cc4c(cc3C(OC3OC5COC(C)OC5C(O)C3O)C3COC(=O)C23)OCO4)cc(OC)c1O (stereo not given) + CC(CO)NC(=O)c1cc(-c2ccc(Cl)cc2)nn(-c2cnn(C)c2)c1=O	> 10	> 10	> 10	> 10	> 10	102	88.7	93.6	97.5	91	94	99.2	95.5	92.7	95.5	93.6	90.1	96.6	88.9	94.2	viability, T/C [23]: 98.2%; viability, T/C [24]: 77.7%; viability, T/C [27]: 83.7%; viability, T/C [28]: 76.5%; viability, T/C [30]: 98.4%; viability, T/C [31]: 81.4%; viability, T/C [32]: 72.8%; viability, T/C [33]: 75.2%; viability, T/C [34]: 93.5%; viability, T/C [35]: 91.5%; viability, T/C [36]: 83.9%; viability, T/C [37]: 81.8%; viability, T/C [38]: 77.6%; viability, T/C [39]: 67.4%; viability, T/C [40]: 57.3%
COc1cccc2c1C(=O)c1c(O)c3c(c(O)c1C2=O)CC(O)(C(=O)CO)CC3OC1CC(N)C(O)C(C)O1 (stereo not given) + CC(CO)NC(=O)c1cc(-c2ccc(Cl)cc2)nn(-c2cnn(C)c2)c1=O	4.49	5.32	3.76	3.43	1.62	103	104	98.3	100	96.7	111	85.6	99.2	90.5	76.1	87.8	78.3	90.4	81.6	98.4	viability, T/C [23]: 58.3%; viability, T/C [24]: 31.8%; viability, T/C [27]: 65.1%; viability, T/C [28]: 32.5%; viability, T/C [30]: 70.7%; viability, T/C [31]: 58.9%; viability, T/C [32]: 27.1%; viability, T/C [33]: 88.7%; viability, T/C [34]: 57.6%; viability, T/C [35]: 59.3%; viability, T/C [36]: 27%; viability, T/C [37]: 72.8%; viability, T/C [38]: 58%; viability, T/C [39]: 40.3%; viability, T/C [40]: 6.01%
Nc1ncn(C2CC(O)C(CO)O2)c(=O)n1 (stereo not given) + CC(CO)NC(=O)c1cc(-c2ccc(Cl)cc2)nn(-c2cnn(C)c2)c1=O	> 1	> 1	> 1	> 1	> 1	104	94.1	79.4	92.9	88.9	72.5	90.4	89.5	89.7	97.7	93	94.2	91	95.5	85.6	viability, T/C [1]: 103%; viability, T/C [2]: 103%; viability, T/C [5]: 98.2%; viability, T/C [6]: 103%; viability, T/C [9]: 92.3%; viability, T/C [10]: 94.5%; viability, T/C [30]: 91.9%; viability, T/C [13]: 95.9%; viability, T/C [14]: 104%; viability, T/C [33]: 87.1%; viability, T/C [34]: 83.2%; viability, T/C [17]: 89.2%; viability, T/C [18]: 79.9%; viability, T/C [37]: 85.9%; viability, T/C [38]: 93.2%

Reference: PubChem BioAssay AID1918993 (Molecular Pharmacology Branch, DTP, NCI, 2023)
